Assay [1] has as its system P. falciparum (strain 3D7). To be noted: cited from earlier work.
The test system of assay [2] is hGrx1-roGFP2 in P. falciparum 3D7. Nature of the assay: cytosolic glutathione redox sensor in parasites. In kind it is cell-based, Plasmodium falciparum. Conditions: 100 nM, 24 h. On the procedure:
To further study the mechanism of action of the steroid compounds and evaluate the potential involvement of redox stress, compound 1o was tested in cell culture on the chloroquine-sensitive P. falciparum 3D7 strain expressing the cytosolic glutathione redox sensor hGrx1-roGFP2 (Supplementary Note 2). […]
signals at 405/475 nm were calculated and plotted against time and/or concentration of compound 1o or redox active compounds. Data from three independent experiments were […]
100 µM for 4 h and 24 h incubations. Transfection of the Pf3D7 strain with the redox sensor was carried out, and the parasites were cultured as described under constant drug pressure with 5 nM WR99210 (Jacobus Pharmaceuticals, New Jersey, USA).45,46 P. falciparum trophozoites were enriched via magnet separation.47 Parasitemia was counted by using Giemsa-stained blood smears. The IC50 of compound 1o on P. falciparum 3D7 asexual blood stages was verified to be about 5 nM in an additional 72 h [3H] incorporation assay45 directly before the experiment. The effect of compound 1o on P. falciparum was investigated in 4 h and 24 h incubations. For 4 h experiments, trophozoite stage parasites (26-30 h post invasion) of 3D7[hGrx1-roGFP2] (6-8% parasitemia) were magnetically enriched (Miltenyi Biotec, Germany), counted by using the improved Neubauer hemocytometer (Brand GmbH, Germany), and returned to cell culture (at 0.5 x 10^6 trophozoites/µl) for at least 1 h to recover.
1.0 x 10^6 cells in 100 µl cell culture medium were placed into LoBind tubes (Eppendorf) for 4 h incubation experiments. The parasites were treated with compound 1o at 50 x, and 100 x IC and with mefloquine (MQ) as a standard antimalarial drug at 1 µM (IC = 8 nM)45 for 4 h […]
for 15 min at 37 °C. For 24 h experiments, a 5 ml culture (6-8% parasitemia) of ring stage parasites (6-10 h post invasion) was treated with compound 1o at 4 x, 10 x, 20 x IC50 and with 100 nM MQ. Prior to enrichment, cysteines were blocked with 2 mM NEM. For 4 h and 24 h experiments, cells were washed after incubation with pre-warmed Ringer’s solution […]
Hepes, 1 mM NaH2PO4, pH 7.4) and were seeded onto poly-L-lysine-coated µ-slides VI (Ibidi, Martinsried, Germany). A Leica confocal system TCS SP5 inverted microscope equipped with the objective HCX PL APO 63.0x1.30 GLYC 37 °C UV connected to a 37 °C temperature chamber was used. The argon laser power was set to 20%; scanning was performed at 400 Hz frequency and at a 512 × 512 pixel resolution. The smart gain and […]
smart offset were 950 V and -0.9%, respectively. With a sequential scan, we excited the sensor at 405 nm and at 488 nm and detected emissions at 500-550 nm. Laser intensity for both lines was adjusted to match the full dynamic range of the probe to the dynamic range of the detector (405 nm: 12%, 488 nm: 4%). Autofluorescence images were simultaneously taken at ex 405 nm / em 430-450 nm and individually defined together with the background for every image, but no fluorescence signal could be detected. All experiments included non- […]
and 10 mM DTT (2 min incubation), respectively, prior to blocking with NEM. Only parasites showing fluorescent signals at both 405 and 488 nm excitation and an intact host cell were chosen for analysis. Each experiment was carried out three times. At least 10 parasites were analyzed, resulting in at least 30 experimental values per incubation. The Leica LAS AF Lite software for fluorescence analysis was used. The 405/488 nm ratio was calculated. The obtained ratio values were normalized to the control ratio value, which was set to 100. The graphs were plotted using the GraphPad Prism 5 software (San Diego, CA, USA). One way-ANOVA test with 95% confidence intervals with the Dunnett’s Multiple Comparison Test was applied for statistical analysis of significance (*, p < 0.05; **, p < 0.01; ***, p < 0.001). […]
with 1 µM MQ. 24 h incubation (Supplementary Figure 8 panel B) with compound 1o resulted in a higher increase of the fluorescence ratio in a concentration-dependent manner. […]

Another assay concerns P. falciparum strain Dd2. The arrangement: method as in PMID 24348249. To be noted: chloroquine-resistant strain Dd2; cited from earlier work.
The subject of assay [3] is Mycobacterium vaccae JMRC:STI:10670. Kind of assay: agar diffusion inhibition zone test. In kind it is cell-based. Conditions: Mycolicibacterium vaccae; 1o, 2o 1,000 µg/ml in DMSO; ciprofloxacin 5 µg/ml; solvent DMSO 13P; read-out: inhibition zone diameter, Mycobac. vaccae (M4). The method, then: (§1) The following organisms were tested at the Hans Knöll Institute in Jena, for their susceptibility to the compounds 1o and 2o: Bacillus subtilis JMRC:STI:10880, Staphylococcus aureus JMRC:ST:10760, Escherichia coli JMRC:ST:33699, Pseudomonas aeruginosa JMRC:ST:33772, Pseudomonas aeruginosa JMRC:ST:337721, Staphylococcus aureus JMRC:ST:33793 (multi-resistant), Enterococcus faecalis JMRC:ST:33700 (Vancomycin-resistant), Mycobacterium vaccae JMRC:STI:10670, Sporobolomyces salmonicolor (Basidiomycetes yeast) JMRC:ST:35974, Candida albicans (Ascomycetes yeast) JMRC:STI:25000, Penicillium notatum JMRC:STI:50164.
(§2) The bacteria were propagated in Mueller Hinton Broth (Oxoid)[49]. Yeast was propagated in YPD (yeast extract peptone dextrose): 1% yeast extract, 10 g; 2% peptone, 20 g; 2% agar, 20 g; 2% dextrose (glucose), 20 g; Sigma-Y1375. All bacteria and yeast suspensions were freshly made. The cultures were incubated at 37 °C for 16 h. Afterwards, the bacteria concentration from each culture was determined, and 34 ml of nutrient agar was loaded with 10^7 cells. These cultures were stored at 6-8 °C and could be used for seven days for the preparation of test plates. 34 ml of nutrient agar was liquefied and inoculated with the calculated amount of inoculum bacteria suspension at 48–50 °C, a temperature suitable for vegetative forms of bacteria. The inoculated nutrient media (34 ml each) were immediately poured into the prepared test plates (3 mm layer). With a punching device, 12 holes per test plate were punched out. For inhibiting bacterial growth, ciprofloxacin was used as a reference substance. The test substances were dissolved in distilled water, and 5 μg ml^−1 and 50 μl was added to each bacterial culture. For inhibition of fungal growth, amphotericin B served as the reference substance. The test substances were diluted to 10 μg ml^−1 in DMSO/methanol; 50 μl was added to each culture.
(§3) Configuring the test plate; volumes/punched hole: 50 μl; test solutions/test plate: 1 × 50 μl reference substance. Test plates were cultivated for 18 h at 37 °C. Analysis: Reading the inhibition zones (IZ): As IZ, the zone in which no growth can be determined with the naked eye is measured; the tiniest colonies on the edge of the inhibition zone were therefore not taken into consideration. The diameter (φ) of the IZ is measured in mm. The analysis of IZ φ is carried out internationally with the help of statistic procedures, especially regression analysis. With each test approach, the reference substance was brought along as a control; if there were deviations from allowed IZ φ, the test was repeated.
(§4) The inhibition of bacterial growth was determined using bacterial cultures grown in Müller-Hinton Bouillon, which was configured at barely visible opacity with the McFarland Standard Nr. 0.5, which indicates a bacterial density of 10^8 ml^−1. This bacterial suspension was diluted with Müller-Hinton Bouillon using 2-fold dilution series in the agar diffusion test.
(§5) Analysis: The growth in the inhibition zones around the holes containing active substances is thereby compared with the growth in the growth control (no active substance). Bacterial growth was determined according to four measurements: p=presence of colonies in the inhibition zone, P=presence of many colonies in the inhibition zone, A=indication of inhibition, F=facilitation.

Assay [4] relates to Pseudomonas aeruginosa JMRC:ST:33772. Kind of assay: agar diffusion inhibition zone test. The class given is cell-based. To be noted: Pseudomonas aeruginosa; 1o, 2o 1,000 µg/ml in DMSO; ciprofloxacin 5 µg/ml; solvent DMSO 13P; read-out: inhibition zone diameter, Pseudomonas aeruginosa JMRC:ST:33772 (B7). The method, then:
as §1, §2, §3, §4, §5
A general note: A growth-free zone around the sample is the usual read-out of agar diffusion tests.

The subject of assay [5] is Staphylococcus aureus JMRC:ST:33793 (multi-resistant). Nature of the assay: agar diffusion inhibition zone test. To be noted: Staphylococcus aureus, MRSA; 1o, 2o 1,000 µg/ml in DMSO; ciprofloxacin 5 µg/ml; solvent DMSO 12P; read-out: inhibition zone diameter, MRSA Staph. aureus (R9). In kind it is cell-based. The method, then:
as §1, §2, §3, §4, §5

Assay [6] deals with Staphylococcus aureus JMRC:ST:10760. Kind of assay: agar diffusion inhibition zone test. In kind it is cell-based. To be noted: Staphylococcus aureus; 1o, 2o 1,000 µg/ml in DMSO; ciprofloxacin 5 µg/ml; solvent DMSO 12P; read-out: inhibition zone diameter, Staphylococcus aureus (B3). The method, then:
as §1, §2, §3, §4, §5

Assay [7] relates to Bacillus subtilis JMRC:STI:10880. Nature of the assay: agar diffusion inhibition zone test. The class given is cell-based. To be noted: Bacillus subtilis; 1o, 2o 1,000 µg/ml in DMSO; ciprofloxacin 5 µg/ml; solvent DMSO 12P; read-out: inhibition zone diameter, Bacillus subtilis (B1). On the procedure:
as §1, §2, §3, §4, §5

The subject of assay [8] is Enterococcus faecalis JMRC:ST:33700 (Vancomycin-resistant). Nature of the assay: agar diffusion inhibition zone test. To be noted: 1o, 2o 1,000 µg/ml in DMSO; ciprofloxacin 5 µg/ml; solvent DMSO 12P. The class given is cell-based. The method, then: as §1, §2, §3, §4, §5
A further assay deals with haem. Kind of assay: ESI-MS collision-induced dissociation of haem adducts. The class given is binding. To be noted: 50 µM haem and 50 µM substrate. The method, then: Compound Molar Adduct DV50 Bottom Dissociation mass [Haem+S] (V) plateau Constant
Supplementary Table 7. ESI-MS-CID data (m/z, calculated DV50 = dissociation voltage at 50% and % bottom plateau) of the [haematin-drug]+ adducts and dissociation constants (KD, µM) of the haematin-drug complexes measured with absorption spectrophotometric titrations.
Conditions: 50 µM haem and 50 µM substrate in H2O/CH3CN (5/95) + 0.1% formic acid.
Stability responses of the haem substrate adduct were obtained via ESI-CID experiments.
Positive mode; fragmentor voltage from 20 V to 400 V with 20 V increments. […]
- 41/120 g), and complete dissolution was achieved using an ultrasonic bath. All solutions were protected from daylight to avoid any photochemical degradation. All the physiochemical measurements were carried out at 25.0(2) °C. […]
Electrospray mass spectrometric measurements stopping point
Electrospray mass spectra of the haem complexes were obtained with an Agilent Technologies 6120 quadrupole equipped with an electrospray (ESI) interface. For

The test system of a further assay is P. falciparum NF54. Nature of the assay: IC50 speed assay. The class given is cell-based, Plasmodium falciparum. Conditions: Plasmodium falciparum. The method, then: To assess the rapidity of growth inhibition induced by the steroid compounds, the so-called IC50 speed assay[16] was conducted for compound 1o on P. falciparum NF54 (Fig. 2a,b).
Assay [9] concerns the target haem (FeIIIPPIX, π-π dimer). Kind of assay: spectrophotometric titration of haematin π-π dimer. The class given is binding. Conditions: absorption spectrophotometric titration, pH 7.5; read-out: Dissociation Constant KD of haematin-drug complex.
[10] abbreviates: same methods (72 h 3H-hypoxanthine incorporation assay), read-out: IC50 on 3D7.

Each structure is given as a SMILES string. Read-outs that look alike come from different tables or passages of the source.

In general, IC50 refers to the concentration needed to halve the response being measured. Take `OC(c1cc(C(F)(F)F)nc2c(C(F)(F)F)cccc12)C1CCCCN1` (stereo not drawn) [mefloquine, reference compound]: the IC50 in assay [1] (read-out: IC50 of mefloquine) was 8 nM. In addition, the “change of 405/488 nm fluorescence ratio” value in [2] was 1.5 fold.
Consider `C[C@@H]1CC[C@H]2[C@@H](C)C(=O)O[C@@H]3O[C@@]4(C)CC[C@@H]1[C@]32OO4` [artemisinin], for which the results for the IC50 (in [1] (setting [10]); with P. falciparum strain Dd2) were 17.3 nM and 20.4 nM, respectively.
As to `O=C(O)c1cn(C2CC2)c2cc(N3CCNCC3)c(F)cc2c1=O` [Ciprofloxacin, ciprofloxacin, reference compound], the zone of inhibition at 5 µg/mL in assay [3] worked out at 21 mm; in [4], 27 mm; in assay [5] it was 0 mm; in assay [6], 19 mm; in [7], 31 mm. In [8], this compound registered an inhibition zone diameter, VRSA Enteroc. faecalis (R10) of 16 mm.
Usually Kd stands for the constant that tells how readily two partners part at equilibrium. Turning to `CCN(CC)CCCC(C)Nc1ccnc2cc(Cl)ccc12` (stereo not drawn) [chloroquine], the IC50 in assay [1] (setting [10]) was 8.6 nM; in the assay on P. falciparum NF54 (NF54, 24 h, read-out: IC50 24 h), 8.3 ± 2.1 nM; with P. falciparum NF54 (NF54, 48 h, read-out: IC50 48 h) it was 7.5 ± 0.9 nM; in the assay with P. falciparum NF54 (NF54, 72 h, read-out: IC50 72 h) it was 7.4 ± 1.1 nM; in the assay on P. falciparum strain Dd2, 90.2 nM. For the same compound, the “DV50 (dissociation voltage at 50%) of haem adduct” value with haem (ESI-CID, 20 V to 400 V) stood at 201 V. Further, in the assay with haem (fragmentor voltage 400 V), the “Bottom plateau (adduct remaining at 400 V)” value is given as 0%. The Kd in [9] worked out at 1300 nM.

Values taken from article PMC5321741, “Arylmethylamino steroids as antiparasitic agents” (Nature Communications, 2017).
